Reference: patent US9987299B2, “Methods of improving RNAi in well-differentiated airway epithelia” (University of Iowa Research Foundation, priority 2014, dated 2018)

Key:
[1] = test system: RSV strain A2; test: RSV titer in apical washings of infected HAE (plaque assay on HEp-2 cells); assay type: cell-based, Respiratory Syncytial Virus
From the text: (§1) FIG. 6. […] HAE was either treated or untreated with PAF in concurrence with RSV N DsiRNA. Six hours later the cells were infected with RSV at an MOI of 1. Forty eight hours later, the cell washings from the apical surface was collected and assayed for viral titer (a). The cells were lysed and the proteins visualized after immunoprecipitation with anti-RSV antibodies (b) and the bands quantified by densitometry (c). Data are mean±SD from the results three different experiments, each using a different donor. ***p<0.001 (Student's t-test).
For infections, RSV aliquots were resuspended in cold DMEM or DMEM/F12. RSV strain A2 (wt RSV) was kindly provided by Barney Graham (NIH, Bethesda, Md.), and working stocks of RSV were prepared in HEp-2 cells (ATCC).
RSV infection of HAE for both for immunoblot and viral titer was done at an MOI of 1. The virus was thawed at 37° C. and diluted in MEM (0% FCS) to a volume of 70 μl (1MOI)/well. The cells in Millicell filters were rinsed with the same media once and the virus applied to the apical surface. The plate was incubated at 37° C. for a period of 2 hours. […]
HEp-2 cells were seeded onto 12-well plate at a sufficient density so that it reached 90-95% confluence the next day. […] The cells were incubated for an additional 24 hours at 37° C. after which the plaques were counted under a light box. […]

[2] = test system: RSV N and P protein; test: RSV protein immunoblot in infected HAE; assay type: cell-based, Respiratory Syncytial Virus; conditions: PAF with RSV N DsiRNA; immunoblot 48 hours after infection
From the text: as §1
RSV infection of HAE for both for immunoblot and viral titer was done at an MOI of 1. The virus was thawed at 37° C. and diluted in MEM (0% FCS) to a volume of 70 μl (1MOI)/well. The cells in Millicell filters were rinsed with the same media once and the virus applied to the apical surface. The plate was incubated at 37° C. for a period of 2 hours. After the incubation period, the virus inoculum was rinsed with MEM three times to remove any traces of the virus. The plates were then incubated at 37° C. until used for the assay.
HAE were rinsed with PBS and lysed in RIPA buffer (1% NP-40, 0.5% sodium deoxycholate, 0.1% SDS, 50 mM Tris, protease inhibitors [complete; mini, EDTA-free; Roche Biochemicals, Indianapolis, Ind.]) for 30 minutes at 4° C. […] The supernatant was quantified by BCA protein assay kit (Pierce, Rockford, Ill.). […]

With platelet activating factor [PAF] the “reduction of viral titers from apical rinses” value ([1]; PAF with RSV N DsiRNA-Transductin, RSV MOI 1 six hours later, 48 hours after infection) was “more than 100 fold”, the “effect on viral titers” value ([1]; PAFR activation alone (no RSV N DsiRNA effect)) was “did not reduce viral titers” and the “RSV N and P protein abundance compared to untreated control cells” value [2] was “reduced”.
